# Assay results taken from paper PMC8422652, “Neuromedin U induces an invasive phenotype in CRC cells expressing the NMUR2 receptor” (Journal of Experimental & Clinical Cancer Research : CR, 2021).
# Where two headings read alike, the source gives them in different places. Square brackets hold non-standard residues; d marks the D form. Ends that are not written are not given here. Peptide text beside a SMILES is read from it. Dmt = Cc1cc(O)cc(C)c1C[C@H](N)C(=O)O; Tic = O=C(O)[C@@H]1Cc2ccccc2CN1
# Tests used:
# [1] = test system: NMUR1 and NMUR2 expression in CRC cells; assay: 5-aza-CdR treatment for NMUR1 and NMUR2 expression analysis (real-time PCR); type: cell-based, human; settings: 50 µM for 96 h (4 days), n ≥ 4
# Procedure: Total RNA was isolated with the ReliaPrep™ RNA Cell Miniprep System (Promega, Madison, WI, USA). The quality control of isolated RNA was performed using the 2100 Bioanalyser (Agilent Technologies, Palo Alto, CA, USA) according to the manufacturer’s instructions. 1 µg of the isolated total RNA (RIN ≥ 8) was reverse transcribed using the High Capacity cDNA Reverse Transcription Kit (Applied Biosystems, CA, USA) according to the manufacturer’s instructions. Real time PCR for human NMU, NMUR1, NMUR2, NTSR1, GHSR1b, GAPDH and β-actin was performed using FastStart Essential DNA Probes Master or FastStart Essential DNA Green Master (Roche, Basel, Switzerland). Amplification was performed on a Roche LightCycler 96. GADPH and/or β-actin mRNA transcripts were used as internal control genes. The amount of target in the various samples was calculated using the 2^−ΔCt relative quantification method with DataAssist v.3.01.
# Cells were seeded on 6-well plates (Corning, NY, USA). After cells attachment (6 h), DNA methyltransferase inhibitor, 5-aza-2’-deoxycytidine (5-aza-CdR) (Sigma-Aldrich) was added at final concentration of 50 µM. Medium containing 5-aza-CdR was refreshed every 24 h. After 96 h, total RNA was isolated and analysed. The real-time PCR products were analysed on a 2 % agarose gel with ethidium bromide (Sigma-Aldrich) and visualized.
# [2] = Half-life in human plasma (plasma stability); type: in vitro ADME
# Text: NMURs agonists, which are NMU-8 analogues, were synthesized with a HPLC purity > 98 %, as described in literature. […] All peptides were used as solutions in water. Peptide sequences and stability data are available in the Table S1 (Additional File 1).
# [3] = test system: ERK1/2 in Caco-2 cells; assay: ERK1/2 activation analysis (immunoblot) in Caco-2 cells; type: cell-based, human; settings: SBL-NMU-17 250 nM, immunoblot pERK1/2 normalised to ERK1/2 and α-tubulin, n = 5 (NMU-9 n = 1)
# Procedure: (§1) CRC cells were lysed with RIPA buffer (100 mM TRIS-HCl, pH 7.5, 300 mM NaCl, 0.2 % SDS with 1 % IGEPAL CA-630 and the Halt™ Protease Inhibitor Cocktail (Thermo Fisher Scientific)) with subsequent centrifugation (18,000 x g, 4 °C, 20 min). Total protein concentration in lysate was quantified by BCA method (Pierce BCA Protein Assay; Thermo Fisher Scientific). Samples were loaded and separated by SDS-PAGE (Mini-PROTEAN TGX Stain-Free Gels; Bio-Rad Laboratories, CA, USA) and transferred onto nitrocellulose membranes (Bio-Rad Laboratories). NMU protein was detected with rabbit anti-NMU antibody (Genetex, CA, USA), for ERK1/2 kinases analysis mouse anti-ERK1/2 (Santa Cruz Biotechnology, USA) and rabbit anti-pERK1/2 antibodies (Invitrogen) were used. In EVs (extracellular vesicles) purity analysis we used rabbit antibodies anti-GM130, anti-annexin V and anti-flotilin-1 (Cell Signaling Technologies, Danvers, MA, USA). Proteins used as loading controls were detected by mouse anti-β-actin, mouse anti-α-tubulin or rabbit anti-GAPDH antibody (Abcam, Cambridge, GB). We used secondary HRP-conjugated goat anti-mouse (Santa Cruz Biotechnology) or anti-rabbit antibodies (Invitrogen). The signal was detected by chemiluminescence (Thermo Fisher Scientific) with Kodak BioMax Light Film from Eastman Kodak (NY, USA). […]
# [4] = test system: HEK293 R2_HA cell line overexpressing NMUR2; assay: Ca2+ mobilization assay (fluo-4) in HEK293 R2_HA cells; type: cell-based, human
# Procedure: (§2) Cells grown on poly-lysine-coated 48-well plates (Corning) for 24 h were stained for 15 min at 37 °C with Hoechst 33342 (Invitrogen). PBS rinsed cells were loaded with Fluo-4 AM (5 µM; Invitrogen) for 45–60 min at 37 °C in the presence of 0.5 % of pluronic-127 in the incubation medium (growth medium without FBS and PS, supplemented with 0.1 % BSA). Cells were rinsed with warm PBS and bathed in a final volume of 300 µl of incubation medium. Images were acquired using AxioVert fluorescence inverted microscope (Zeiss, Germany) with the use of 10 x dry objective (NA 0.3). First, an image of Hoechst 33342-stained nuclei was acquired. Next, a time-lapse image sequence in green channel (Fluo-4) was recorded with exposure time of 500 ms in the same field of view. […] For analysis of CRC cells we chose minimal concertation that induce significant fluorescence change. NMU-9 (1 µM) and NMUR2 agonist (200 nM ~ 5 times the EC50 determined in literature). […] Quantification of the effects is described in Additional Files 1 and 3. […]
# (§3) Quantification of the calcium mobilisation were performed with the use of FIJI image processing package***. […] Fluorescence intensity change over time was measured in each ROI in corresponding movie sequence of Fluo-4 stained cells. […] Such background-corrected values of fluorescence intensity were used for further calculations. […]
# [5] = test system: HT29 cells; assay: Ca2+ mobilization assay (fluo-4) in HT29 cells; type: cell-based, human
# Procedure: as §2, §3
# [6] = test system: ERK1/2 in HEK293 R2_HA cells; assay: ERK1/2 activation analysis (immunoblot) in HEK293 R2_HA cells; type: cell-based, human; settings: HEK293 R2_HA clone, n = 1
# Procedure: as §1, with “In EVs (extracellular vesicles) purity analysis we used rabbit antibodies anti-GM130, anti-annexin V and anti-flotilin-1 (Cell Signaling Technologies, Danvers, MA, USA).” left out, “We used secondary HRP-conjugated goat anti-mouse (Santa Cruz Biotechnology) or anti-rabbit antibodies (Invitrogen).” left out
# Fig. S1 HEK293 R2_HA clones with exogenous NMUR2 overexpression. (A) NMUR2 mRNA levels were analysed in HT29 with endogenous expression of NMUR2 and compared to those in HEK293 R2_HA clones with exogenous expression of NMUR2 (**p ≤ 0,01; n ≥ 3). […] The changes in fluorescence were detected and analysed as described in the Methods section. […]
# [7] = test system: NMUR2; settings: NMUR2 agonist, cited from earlier work
# Text: (§4) NMURs agonists, which are NMU-8 analogues, were synthesized with a HPLC purity > 98 %, as described in literature.
# [8] = cited from earlier work
# Text: Supplement 13046_2021_2073_MOESM1_ESM.docx, table 1: Table S1. […] NMURs agonists, which are NMU-8 analogues, were synthesized with a HPLC purity > 98 %, as described in literature.
# [9] = test system: HCT116 cells; assay: Ca2+ mobilization assay (fluo-4) in HCT116 cells; type: cell-based, human; settings: 1 µM NMU-9, 40 nM NMUR1 agonist, percentage of cells above threshold, n = 5
# Procedure: as §2, with “change.” for “change. NMU-9 (1 µM) and NMUR2 agonist (200 nM ~ 5 times the EC50 determined in literature).”
# Quantification of the calcium mobilisation were performed with the use of FIJI image processing package***. […] Fluorescence intensity change over time was measured in each ROI in corresponding movie sequence of Fluo-4 stained cells. To acquire the change of background fluorescence over time in each movie sequence, additional ROIs were created by the analyst manually in the sites devoid of cells. […]
# [10] = test system: NMUR1; settings: NMUR1 agonist, cited from earlier work
# Text: as §4
# [11] = species not given; cited from earlier work
# Text: Physiologically, NMU has been predominantly found in the central nervous system and in the periphery. In the gastrointestinal tract, locally administered NMU leads to smooth muscle contraction, regulating intestinal motility and regional blood flow, but epithelial cells are not the source of the peptide in the gastrointestinal tract under normal conditions. Human neuromedin U synthesis is tightly regulated at the genetic, epigenetic, transcriptional and post-transcriptional levels, regulating access to cellular microenvironments. Peptide precursors can be produced from three ...
compound,measurement,setting,value
"Nc1ncn([C@H]2C[C@H](O)[C@@H](CO)O2)c(=O)n1 [5-aza-CdR, 5-aza-2’-deoxycytidine]",NMUR1 and NMUR2 expression after DNA demethylation,[1],regulated by promoter methylation
CC(C)C[C@H](NC(=O)[C@H](Cc1ccccc1)NC(=O)[C@@H](N)Cc1ccc(O)cc1)C(=O)N[C@@H](Cc1ccccc1)C(=O)N[C@@H](CCCNC(=N)N)C(=O)N1Cc2ccccc2C[C@H]1C(=O)N[C@@H](CCCNC(=N)N)C(=O)N[C@@H](CC(N)=O)C(N)=O [SBL-NMU-17] (H-YFLFR[Tic]RN-NH2),Metabolite observed in plasma stability studies,"[2]; human plasma, both peptides yielded a 7-amino acid long metabolite",only Tyr was lost
same,Phosphorylation (activation) of ERK1/2 kinases,[3],induced ERK1/2 kinase activation
same,Minimal effective concentration (Ca2+ influx),[4]; HEK293 R2_HA cells loaded with fluo-4,150 nM
same,Calcium mobilisation (fluo-4),"[4]; HEK293 R2_HA, NMU-9 0.7 µM, SBL-NMU-17 150 nM, n = 3",significant calcium mobilisation
same,Minimal concentration that induces significant fluorescence change (Ca2+ mobilisation),"[5]; CRC cells, tested 150, 200, 300 nM",200 nM
same,Change in fluo-4 fluorescence intensity caused by Ca2+ mobilisation,"[5]; HT29 cells, 1 µM NMU-9, 200 nM NMUR2 agonist, percentage of cells above threshold, n = 5",significantly responded
same,ERK1/2 phosphorylation,[6],observed ERK1/2 phosphorylation
same,EC50,[7]; IP3 pathway activation data,45.5 nM
same,IC50,[7]; competitive binding assay,13 nM
CC(=O)N[C@@H](Cc1ccc(O)cc1)C(=O)N[C@@H](Cc1ccccc1)C(=O)N[C@@H](CC(C)C)C(=O)N[C@@H](Cc1c(C)cc(O)cc1C)C(=O)N[C@@H](CCCNC(=N)N)C(=O)N1CCC[C@H]1C(=O)N[C@@H](CCCNC(=N)N)C(=O)N[C@@H](CC(N)=O)C(N)=O [SBL-NMU-21] (Ac-YFL[Dmt]RPRN-NH2),Half-life in human plasma (t1/2),[8],4.225 h
same,Change in fluo-4 fluorescence intensity caused by Ca2+ mobilisation,[9],did not detect statistically significant changes
same,EC50,[10]; calculated based on the IP3 pathway activation data,7.7 nM
same,IC50,[10]; calculated based on the competitive binding assay,0.36 nM
GYFLFRPRN-NH2 [NMU-9],Metabolite observed in plasma stability studies,[2],the peptide devoid of the Gly-Tyr segment was quickly observed
same,Half-life in human plasma (t1/2),[2]; human,4.60 ± 0.4 min
"NMU: Native neuromedin U peptide, secretory neuropeptide with amidated C-terminal pentapeptide (FRVDEEFQSPFASQSRGYFLFRPRN-NH2; UniProt P48645 142-166, looked up)",estimated half-life in plasma,[11],less than 5 min
